Drawing on article PMC12064818, “A general assay platform to study protein pharmacology using ligand-dependent structural dynamics” (Nature Communications, 2025), this text covers IC50 for 73 molecules.

The target in this assay is T1, FLuc-C-HiBiT (Photinus pyralis, UniProt P08659).
T1 construct: firefly luciferase with C-terminal HiBiT tag, E. coli expressed
As to the kind of experiment: biochemical. Particulars: enzyme activity, 10 uM ATP; read-out: IC50 or SDR50 (mM) / FLuc E.

T1 sequence (P08659 whole entry, looked up): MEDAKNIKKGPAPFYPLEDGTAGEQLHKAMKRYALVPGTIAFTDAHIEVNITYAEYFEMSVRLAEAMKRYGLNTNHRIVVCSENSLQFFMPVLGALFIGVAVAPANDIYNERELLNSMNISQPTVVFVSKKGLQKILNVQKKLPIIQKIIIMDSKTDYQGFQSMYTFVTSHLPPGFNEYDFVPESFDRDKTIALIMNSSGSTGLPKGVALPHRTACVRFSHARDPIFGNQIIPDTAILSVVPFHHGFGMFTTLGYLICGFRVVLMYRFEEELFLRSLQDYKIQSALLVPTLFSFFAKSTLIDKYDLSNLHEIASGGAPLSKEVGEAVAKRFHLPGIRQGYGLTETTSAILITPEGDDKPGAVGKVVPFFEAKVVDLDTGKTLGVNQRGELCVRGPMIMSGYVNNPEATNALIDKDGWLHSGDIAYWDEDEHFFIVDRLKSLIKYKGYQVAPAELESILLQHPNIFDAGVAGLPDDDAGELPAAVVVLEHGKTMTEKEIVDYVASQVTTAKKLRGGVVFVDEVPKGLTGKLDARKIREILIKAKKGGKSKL

For `CC(C)c1noc(-c2nc(-c3ccc4c(c3)OCO4)no2)n1` [NCGC00450061-01], the IC50 was 0.00785 mM.

Regarding `CCc1noc(-c2nc(-c3ccc4c(c3)OCO4)no2)n1` [NCGC00450064-01], the IC50 amounted to 0.00989 mM.

Take `c1ccc(-c2noc(-c3nc(C4CC4)no3)n2)cc1` [NCGC00450069-01]: the IC50 worked out at 0.00989 mM.

Consider `CCc1noc(-c2nc(-c3ccccc3C)no2)n1` [NCGC00450081-01], for which the IC50 was above 0.03 mM.

For the molecule `Cc1ccc(-c2noc(-c3nc(C(C)C)no3)n2)cc1` [NCGC00450102-01], the IC50 is 0.0111 mM.

Take `Cc1ccc(NC(=O)c2ccc3c(c2)N(C)C2CCCN2C3=O)cc1C` (stereo not shown) [NCGC00452108-01]: the IC50 is 0.0124 mM.

In the case of `Cc1ccc(NC(=O)c2ccc3c(c2)N(C)C2CCCN2C3=O)cc1F` (stereo not shown) [NCGC00452116-01], the IC50 is 0.00881 mM.

In the case of `CCN1c2cc(C(=O)Nc3ccc4c(c3)OCCO4)ccc2C(=O)N2CCCC21` (stereo not shown) [NCGC00452150-01], the IC50 worked out at 0.0111 mM.

Regarding `CN1c2cc(C(=O)Nc3ccc4c(c3)OCCO4)ccc2C(=O)N2CCCC21` (stereo not shown) [NCGC00452151-01], the IC50 amounted to 0.00785 mM.

For the molecule `CSc1cccc(NC(=O)c2ccc3c(c2)N(C)C2CCCN2C3=O)c1` (stereo not shown) [NCGC00452155-01], the IC50 turned out to be 0.0111 mM.

For the molecule `CSc1ccc(NC(=O)c2ccc3c(c2)N(C)C2CCCN2C3=O)cc1` (stereo not shown) [NCGC00452166-01], the IC50 stood at 0.0124 mM.

In the case of `CN1c2cc(C(=O)Nc3cccc(F)c3)ccc2C(=O)N2CCCCCC21` (stereo not shown) [NCGC00452183-01], the IC50 turned out to be 0.0124 mM.

In the case of `CN1c2cc(C(=O)Nc3ccccc3)ccc2C(=O)N2CCCCCC21` (stereo not shown) [NCGC00452190-01], the IC50 was 0.0111 mM.

In the case of `CN1c2cc(C(=O)Nc3cccc(Cl)c3)ccc2C(=O)N2CCCCCC21` (stereo not shown) [NCGC00452209-01], the IC50 was determined as 0.0176 mM.

Take `CN1c2cc(C(=O)Nc3cc(F)ccc3F)ccc2C(=O)N2CCCCCC21` (stereo not shown) [NCGC00452248-01]: the IC50 amounted to 0.0124 mM.

On to `CCN1c2cc(C(=O)Nc3ccc4c(c3)OCCO4)ccc2C(=O)N2CCCCCC21` (stereo not shown) [NCGC00452264-01], for which the IC50 stood at 0.00989 mM.

Turning to `CN1c2cc(C(=O)Nc3ccccc3)ccc2C(=O)N2CCCCC21` (stereo not shown) [NCGC00452396-01], the IC50 is 0.0124 mM.

`CN(C)c1ccc(NC(=O)c2ccc3c(c2)N(C)C2CCCCN2C3=O)cc1` (stereo not shown) [NCGC00452413-01]: the IC50 was 0.0111 mM.

In the case of `CN1c2cc(C(=O)Nc3ccc4c(c3)OCCO4)ccc2C(=O)N2CCCCC21` (stereo not shown) [NCGC00452420-01], the IC50 was 0.00989 mM.

Regarding `CCN1c2cc(C(=O)Nc3ccc(N(C)C)cc3)ccc2C(=O)N2CCCCC21` (stereo not shown) [NCGC00452497-01], the IC50 stood at 0.0124 mM.

In the case of `CCN1c2cc(C(=O)Nc3ccc4c(c3)OCCO4)ccc2C(=O)N2CCCCC21` (stereo not shown) [NCGC00452503-01], the IC50 is 0.00989 mM.

Turning to `COC1CCOC2(CCN(C(=O)CCCc3ccccc3)CC2)C1` (stereo not shown) [NCGC00452766-01], the IC50 was determined as 0.0157 mM.

As to `O=C(CCCc1ccccc1)N1CCC2(CC1)CC(O)CCO2` (stereo not shown) [NCGC00452928-01], the IC50 was determined as 0.0124 mM.

`Cc1ccc(NC(=O)N2CCCC(c3noc(COc4ccccc4)n3)C2)cc1C` (stereo not shown) [NCGC00453299-01]: the IC50 turned out to be 0.00881 mM.

On to `O=C(Nc1ccc2c(c1)OCCO2)N1CCC(c2nc(C3CCOCC3)no2)CC1` [NCGC00453474-01], for which the IC50 came out at 0.0111 mM.

With `O=C(c1cc(-c2ccc(F)cc2)nc2ccccc12)N1CCC(c2nc(C3CCOCC3)no2)C1` (stereo not shown) [NCGC00453669-01], the IC50 worked out at 0.00989 mM.

For the molecule `O=C(Nc1ccc2c(c1)OCCO2)N1CCC2(CC1)CC(N1CCCC1)CCO2` (stereo not shown) [NCGC00453772-01], the IC50 is 0.0111 mM.

For the molecule `Cc1cn2nc(C(=O)Nc3ccc(C(=O)N4CCCC4)cc3)cc2c(=O)[nH]1` [NCGC00453923-01], the IC50 was 0.00989 mM.

As to `CCc1ccccc1NC(=O)c1cc2c(=O)[nH]c(C)cn2n1` [NCGC00453924-01], the IC50 came to 0.0157 mM.

For `COc1ccc(NC(=O)c2cc3c(=O)[nH]c(C)cn3n2)cc1OC` [NCGC00453925-01], the IC50 was found to be 0.00989 mM.

For `Cc1cn2nc(C(=O)NCCc3ccccc3)cc2c(=O)[nH]1` [NCGC00453944-01], the IC50 is 0.0111 mM.

On to `Cc1cn2nc(C(=O)Nc3ccc(C(=O)NCCc4cccs4)cc3)cc2c(=O)[nH]1` [NCGC00453964-01], for which the IC50 was found to be 0.00881 mM.

Regarding `Cc1cn2nc(C(=O)Nc3ccc(N(C)C)cc3)cc2c(N2CCCC2)n1` [NCGC00454051-01], the IC50 was 0.0111 mM.

Consider `Cc1cn2nc(C(=O)Nc3ccc4c(c3)OCCO4)cc2c(N(C)Cc2ccccc2)n1` [NCGC00454161-01], for which the IC50 worked out at 0.00989 mM.

Consider `CCc1cccc(NC(=O)c2cc(-c3ccc[nH]3)n[nH]2)c1` [NCGC00454482-03], for which the IC50 stood at 0.00989 mM.

In the case of `Cc1ccc(NC(=O)c2ccc(CN3C(=O)NC4(CCOCC4)C3=O)cc2)cc1C` [NCGC00454605-01], the IC50 is 0.0111 mM.

Regarding `CC(C)c1ccc(NC(=O)c2ccc(CN3C(=O)NC4(CCOCC4)C3=O)cc2)cc1` [NCGC00454608-01], the IC50 was 0.00351 mM.

As for `O=C(NCc1ccc2c(c1)OCO2)C1CCN(c2cc(C(F)(F)F)ncn2)CC1` [NCGC00455586-01], the IC50 was 0.0111 mM.

For `CC(C)n1cnnc1CC1CCN(C(=O)Nc2ccc3c(c2)OCCO3)CC1` [NCGC00456228-01], the IC50 came to 0.00989 mM.

As to `Cc1ccc(-c2cc(C(=O)N3CCC(Cc4nncn4CC4CC4)CC3)c3ccccc3n2)cc1C` [NCGC00456240-01], the IC50 turned out to be 0.00197 mM.

Take `O=C(c1cc(-c2ccc(F)cc2)nc2ccccc12)N1CCC(Cc2nncn2CC2CC2)CC1` [NCGC00456245-01]: the IC50 worked out at 0.00881 mM.

On to `CCn1cnnc1CC1CCN(C(=O)c2cc(-c3ccc(C)c(C)c3)nc3ccccc23)CC1` [NCGC00456253-01], for which the IC50 was determined as 0.00279 mM.

Take `Cc1ccc(OCc2nc(C3CN(C(=O)c4n[nH]c5ccccc45)C3)no2)cc1` [NCGC00456269-01]: the IC50 is 0.00881 mM.

Regarding `CCC(C(=O)NCCn1ccn2nc(-c3ccc(OC)cc3)cc2c1=O)c1ccccc1` (stereo not shown) [NCGC00456905-01], the IC50 amounted to 0.0111 mM.

For the molecule `COc1ccc(-c2cc3c(=O)n(CCNC(=O)c4c(F)cccc4Cl)ccn3n2)cc1` [NCGC00456907-01], the IC50 was 0.007 mM.

On to `COc1ccc(-c2cc3c(=O)n(CCNC(=O)c4c(F)cccc4F)ccn3n2)cc1` [NCGC00456908-01], for which the IC50 was found to be 0.00495 mM.

Turning to `COc1ccc(-c2cc3c(=O)n(CCNC(=O)c4ccco4)ccn3n2)cc1` [NCGC00456922-01], the IC50 worked out at 0.00989 mM.

For `COc1ccc(-c2cc3c(=O)n(CCNC(=O)Cc4cccs4)ccn3n2)cc1` [NCGC00456924-01], the IC50 is 0.00989 mM.

For the molecule `COc1ccc(-c2cc3c(=O)n(CCNC(=O)c4cccc(N(C)C)c4)ccn3n2)cc1` [NCGC00456929-01], the IC50 was 0.00351 mM.

For the molecule `CCOc1ccc(-c2cc3c(=O)n(CCNC(=O)c4cccc(C#N)c4)ccn3n2)cc1` [NCGC00456938-01], the IC50 was 0.0007 mM.

For `CCOc1ccc(-c2cc3c(=O)n(CCNC(=O)c4cccc(N(C)C)c4)ccn3n2)cc1` [NCGC00456949-01], the IC50 was determined as 0.00394 mM.

In the case of `CCOc1ccc(-c2cc3c(=O)n(CCNC(=O)c4ccncc4)ccn3n2)cc1` [NCGC00456950-01], the IC50 was found to be 0.00351 mM.

Turning to `CCOc1ccc(-c2cc3c(=O)n(CCNC(=O)c4cccc5[nH]ccc45)ccn3n2)cc1` [NCGC00456956-01], the IC50 was determined as 0.00556 mM.

Take `Cc1ccc(-c2cc3c(=O)n(CCNC(=O)C4CCCCC4)ccn3n2)c(C)c1` [NCGC00456958-01]: the IC50 came to 0.00248 mM.

`COc1cccc(CC(=O)NCCn2ccn3nc(-c4ccc(C)cc4C)cc3c2=O)c1` [NCGC00456960-01]: the IC50 came out at 0.00881 mM.

For `Cc1ccc(-c2cc3c(=O)n(CCNC(=O)c4cccnc4)ccn3n2)c(C)c1` [NCGC00456961-01], the IC50 worked out at 0.00989 mM.

Regarding `CC(=O)Nc1cccc(C(=O)NCCn2ccn3nc(-c4ccc(C)cc4C)cc3c2=O)c1` [NCGC00456962-01], the IC50 was 0.00989 mM.

Turning to `COc1cccc(C(=O)NCCn2ccn3nc(-c4ccc(C)cc4C)cc3c2=O)c1OC` [NCGC00456963-01], the IC50 is 0.00989 mM.

As for `Cc1ccc(-c2cc3c(=O)n(CCNC(=O)Cc4cccc(F)c4)ccn3n2)c(C)c1` [NCGC00456965-01], the IC50 turned out to be 0.00556 mM.

In the case of `Cc1ccc(-c2cc3c(=O)n(CCNC(=O)c4ccc(C)s4)ccn3n2)c(C)c1` [NCGC00456966-01], the IC50 stood at 0.007 mM.

For the molecule `COc1ccc(C(=O)NCCn2ccn3nc(-c4ccc(C)cc4C)cc3c2=O)cc1F` [NCGC00456968-01], the IC50 was found to be 0.00351 mM.

For `Cc1ccc(-c2cc3c(=O)n(CCNC(=O)c4cccc(C#N)c4)ccn3n2)c(C)c1` [NCGC00456970-01], the IC50 stood at 0.00313 mM.

Regarding `Cc1ccc(-c2cc3c(=O)n(CCNC(=O)c4nn(C)c5ccccc45)ccn3n2)c(C)c1` [NCGC00456971-01], the IC50 came out at 0.00157 mM.

With `Cc1ccc(-c2cc3c(=O)n(CCNC(=O)Cc4ccsc4)ccn3n2)c(C)c1` [NCGC00456972-01], the IC50 was determined as 0.00624 mM.

As to `Cc1ccc(-c2cc3c(=O)n(CCNC(=O)c4nccc5ccccc45)ccn3n2)c(C)c1` [NCGC00456974-01], the IC50 was found to be 0.00881 mM.

Regarding `COc1ccc(C(=O)NCCn2ccn3nc(-c4ccc(C)cc4C)cc3c2=O)c(C)c1` [NCGC00456977-01], the IC50 is 0.00495 mM.

In the case of `Cc1ccc(-c2cc3c(=O)n(CCNC(=O)c4cccc(Cl)c4)ccn3n2)c(C)c1` [NCGC00456978-01], the IC50 worked out at 0.00394 mM.

For the molecule `Cc1ccc(-c2cc3c(=O)n(CCNC(=O)c4ccco4)ccn3n2)c(C)c1` [NCGC00456979-01], the IC50 came to 0.00989 mM.

Take `Cc1ccc(-c2cc3c(=O)n(CCNC(=O)c4ccccc4F)ccn3n2)c(C)c1` [NCGC00456982-01]: the IC50 amounted to 0.007 mM.

With `Cc1ccc(-c2cc3c(=O)n(CCNC(=O)c4ccc(N(C)C)cc4)ccn3n2)c(C)c1` [NCGC00456986-01], the IC50 was found to be 0.00313 mM.

With `COc1ccccc1C(=O)NCCn1ccn2nc(-c3ccc(C)cc3C)cc2c1=O` [NCGC00456987-01], the IC50 amounted to 0.00989 mM.

Turning to `Cc1cc(C)cc(C(=O)NCCn2ccn3nc(-c4ccc(C)cc4C)cc3c2=O)c1` [NCGC00456988-01], the IC50 turned out to be 0.007 mM.

`COc1cccc(CC(=O)NCCn2ccn3nc(-c4ccc(C)c(C)c4)cc3c2=O)c1` [NCGC00457016-01]: the IC50 was 0.0111 mM.
